# Columns and labels:
# [1] = system: IOMM-Lee cells; test: MTT cell viability, killing meningioma cells (IOMM-Lee); assay type: cell-based, Human; settings: IOMM-Lee grade III malignant meningioma cells, 72 hours; for IC50: Homo sapiens, read-out: IC50 (concentration to achieve 50% lethal rate)
# Excerpt: (§1) In the following Examples, the used materials and equipment are described as below: • 1. Human meningioma cell lines: IOMM-Lee cells (purchased from ATCC; CRL-3370;
# (§2) belonging to grade III malignant meningioma cells), AMGI-0102 primary culture cells (obtained by the approval according to the human subject research of Hualien Tzu Chi Hospital (Buddhist Tzu Chi Medical Foundation); belonging to grade I benign meningioma cells). • 2. […] Medium for AMGI-0102 cells: DMEM/F12 medium (Dulbecco's Modified Eagle Medium/F12 with L-glutamine, HEPES; purchased from HyClone; product number: SH30023.02) containing 10% Fetal Bovine Serum and 1% penicillin/streptomycin. • 4. Z-butylidenephthalide (Z-BP): provided by Everfront Biotech Inc.; purity 99.8%. • 5. E-butylidenephthalide (E-BP): provided by Everfront Biotech Inc.; purity 98.01%. • 6. 2-pentanolybenzoic acid (BP-OH): provided by Everfront Biotech Inc.; purity 99.6%. • 7. Sodium^2-pentanoylbenzoate (BPONa): provided by Everfront Biotech Inc.; purity 99.7%. • 8. 5-fluorouracil (5-FU): purchased from Sigma; product number: F6627. • 9. Carmustine (BCNU): purchased from Sigma; product number: SI-00400-100MG. • 10. MTIC: purchased from Biosynth Carbosynth; product number: FM26098. • 11. MTT (Thiazolyl Blue tetrazolium bromide, 3-[4,5-dimethylthiahiazo-2-yl]-2,4-dipheny-tetrazolium bromide): purchased from ALFA Aesar™; product number: L11939-000000-16AF. • 12. ELISA reader: purchased from Thermo Fisher Scientific; model number: 22662. • 13. […]
# IOMM-Lee cells and AMGI-0102 cells were independently seeded in a 96-well plate (1×10^4 cells/well), and the 96-well plate was placed under an environment of 37° C. and 5% CO2 for 24 hours. After that, the cells in the 96-well plate were subjected to the following procedures: • (a) the cells in different wells were cultured with a medium containing Z-butylidenephthalide, E-butylidenephthalide, 2-pentanolybenzoic acid, or sodium^2-pentanoylbenzoate, and the 96-well plate was placed under an environment of 37° C. and 5% CO2 for 72 hours; • (b) MTT was added into each well (the final concentration is 0.5 mg/ml), and the 96-well plate was placed under an environment of 37° C. and 5% CO2 for 1.5 hours; • (c) the medium of each well was removed, and then dimethyl sulfoxide was added (100 μl/well); and • (d) an absorbance value of each well at 595 nm was measured by an ELISA reader. […]
# [2] = system: AMGI-0102 cells; test: MTT cell viability, killing meningioma cells (AMGI-0102); assay type: cell-based, Human; settings: AMGI-0102 grade I benign meningioma primary culture cells, 72 hours
# Excerpt: as §1
# as §2, with “MTT (Thiazolyl Blue tetrazolium bromide, 3-[4,5-dimethylthiahiazo-2-yl]-2,4-dipheny-tetrazolium bromide): purchased from ALFA Aesar™; product number: L11939-000000-16AF. • 12.” left out
# [3] = system: p-JNK protein; test: Western Blotting of p-JNK protein in IOMM-Lee cells; assay type: cell-based, Human; settings: IOMM-Lee cells, 0, 16.8 and 33.6 μg/ml, 24 hours, FIG. 1
# Excerpt: (§3) It is known that the activations (phosphorylation) of ERK (extracellular signal-regulated kinase) protein and JNK (c-Jun N-terminal kinase) protein in the protein kinase family are related to the proliferation of tumor cells. The aforesaid facts can be found in such as: “The ERK and JNK pathways in the regulation of metabolic reprogramming ” Oncogene. 2019; 38: 2223-2240; “ERK Inhibitor LY3214996 Targets ERK Pathway-Driven Cancers: A Therapeutic Approach Toward Precision Medicine.” Mol Cancer Ther. 2020 February; 19(2):325-336; and “The novel JNK inhibitor AS602801 inhibits cancer stem cells in vitro and in vivo.” Oncotarget. 2016 May 10; 7(19):27021-32, which are entirely incorporated hereinto by reference. Therefore, if the activations of ERK protein and JNK protein in tumor cells can be reduced, the meningioma growth will be inhibited.
# (§4) IOMM-Lee cells were seeded in a 10 cm culture dish ([…]), and the dish was placed under an environment of 37° C. and 5% CO2 for 24 hours. Then, the cells in different dishes were independently cultured with a medium containing Z-butylidenephthalide at concentrations of 0, 16.8 and 33.6 μg/ml. […] Finally, the expressions of the inactivated JNK protein and ERK protein, and the activated p-JNK protein and p-ERK protein in the cells were detected by Western Blotting. […]
# [4] = system: grade III meningioma; test: Human test: tumor size by T1-weighted MRI after wafer implantation; assay type: in vivo; settings: one subject with grade III meningioma; six wafers (75 mg Z-butylidenephthalide per wafer) implanted in resection cavity, plus oral temozolomide; up to 224 days after operation
# Method: In this example, depending on the approval of the Research Ethics Committee Hualien Tzu Chi Hospital (Buddhist Tzu Chi Medical Foundation; SP109-04), meningioma patients were administered with Z-butylidenephthalide to observe the effects of the compounds of the present invention on inhibiting meningioma growth.
# During the surgical operation for resecting meningioma in a subject (suffered with grade III meningioma), six wafers containing Z-butylidenephthalide (75 mg of Z-butylidenephthalide per wafer) were implanted into the cavity generated by resecting meningioma. The subject also took 150 mg/m^2 of body surface area/day (the first treatment course) or 200 mg/m^2 of body surface area/day (the second to sixth treatment course) of temozolomide via oral administration every day post-operation. […] On the other hand, the tumor size in the pictures of the subject's brain (at pre-operation, and post-operative days 1, 28, 84, 168, and 224), obtained by T1-weighted magnetic resonance imaging, was also calculated by using StealthStation S7 software (purchased from Medtronic company, US).
# [5] = system: p-ERK protein; test: Western Blotting of p-ERK protein in IOMM-Lee cells; assay type: cell-based, Human; settings: IOMM-Lee cells, 0, 16.8 and 33.6 μg/ml, 24 hours, FIG. 1
# Excerpt: as §3, §4
compound,measurement,setting,value
CCC/C=C1/OC(=O)c2ccccc21 [E-butylidenephthalide],IC50,[1],306 µg/mL
2-pentanolybenzoic acid,IC50 (concentration to achieve 50% lethal rate),[2],1286.3 µg/mL
same,IC50 (concentration to achieve 50% lethal rate),[1],304.3 µg/mL
CCC/C=C1\OC(=O)c2ccccc21 [Z-butylidenephthalide],expression of p-JNK protein,[3],significantly decreased
same,tumor size of the subject,[4],no change in the tumor size
same,IC50,"[2]; Homo sapiens, read-out: IC50 (concentration to achieve 50% lethal rate)",94.5 µg/mL
same,IC50,[1],33.5 µg/mL
same,expression of p-ERK protein,[5],significantly decreased
CCCCC(=O)c1ccccc1C(=O)[O-].[Na+] [sodium 2-pentanoylbenzoate],IC50,[1],365 µg/mL
